The results in this text go back to ChEMBL document CHEMBL1157703, “Synthesis, pharmacological studies and molecular modeling of some tetracyclic 1,3-diazepinium chlorides” (Bioorg Med Chem, 2010).

Each structure is given as a SMILES string. Active and inactive are the calls of the source. No cut-off for these calls is given here.

The species entered for data set [1] is Mus musculus. Briefly: CNS toxicity in Albino mouse assessed as change in respiratory rate at 0.2 ml/10 g by hippocratic screen. In kind it is organism-based. Particulars: in vivo.
The species entered for data set [2] is Mus musculus. Put plainly: Effect on behavioral activity in Albino mouse assessed as inhibition of diazepam-induced ataxia at 0.2 ml/10 g after 5 mins by hippocratic screen. In kind it is functional, organism-based.
For data set [3], the species on record is Mus musculus. Put plainly: CNS toxicity in Albino mouse assessed as startle reaction at 0.2 ml/10 g by hippocratic screen. In kind it is organism-based. Conditions: in vivo.
For data set [4], the species on record is Mus musculus. Put plainly: Effect on behavioral activity in Albino mouse assessed as inhibition of diazepam-induced pinnal reflex at 0.2 ml/10 g by hippocratic screen. Format: functional, organism-based.
The species named for data set [5] is Mus musculus. Put plainly: Effect on behavioral activity in Albino mouse assessed as inhibition of diazepam-induced paralysis at 0.2 ml/10 g by hippocratic screen. Format: functional, organism-based.
For data set [6], the species on record is Mus musculus. Put plainly: Effect on behavioral activity in Albino mouse assessed as inhibition of diazepam-induced loss of screen grip at 0.2 ml/10 g by hippocratic screen. Format: functional, organism-based.
The species named for data set [7] is Mus musculus. Briefly: CNS toxicity in Albino mouse assessed as pinnal reflex at 0.2 ml/10 g by hippocratic screen. In kind it is organism-based. Particulars: in vivo.
For data set [8], the target named is T1, GABA A receptor alpha-3/beta-2/gamma-2 (Homo sapiens, UniProt P18507+P34903+P47870).
T1 sequence (P47870 whole entry): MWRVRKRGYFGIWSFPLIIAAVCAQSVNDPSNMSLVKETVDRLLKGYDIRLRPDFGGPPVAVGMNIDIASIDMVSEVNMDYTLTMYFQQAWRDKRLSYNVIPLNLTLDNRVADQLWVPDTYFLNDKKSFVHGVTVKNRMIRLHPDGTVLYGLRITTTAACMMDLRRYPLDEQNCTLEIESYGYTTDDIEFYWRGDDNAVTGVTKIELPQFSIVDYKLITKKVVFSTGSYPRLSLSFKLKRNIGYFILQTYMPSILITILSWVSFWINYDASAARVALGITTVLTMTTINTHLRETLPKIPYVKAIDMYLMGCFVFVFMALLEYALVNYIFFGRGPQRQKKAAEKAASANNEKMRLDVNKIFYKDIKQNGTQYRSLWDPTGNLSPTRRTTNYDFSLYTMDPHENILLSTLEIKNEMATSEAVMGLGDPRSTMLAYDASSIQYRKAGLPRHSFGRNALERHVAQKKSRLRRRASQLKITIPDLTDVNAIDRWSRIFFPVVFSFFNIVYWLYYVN
T1 sequence (P18507 whole entry): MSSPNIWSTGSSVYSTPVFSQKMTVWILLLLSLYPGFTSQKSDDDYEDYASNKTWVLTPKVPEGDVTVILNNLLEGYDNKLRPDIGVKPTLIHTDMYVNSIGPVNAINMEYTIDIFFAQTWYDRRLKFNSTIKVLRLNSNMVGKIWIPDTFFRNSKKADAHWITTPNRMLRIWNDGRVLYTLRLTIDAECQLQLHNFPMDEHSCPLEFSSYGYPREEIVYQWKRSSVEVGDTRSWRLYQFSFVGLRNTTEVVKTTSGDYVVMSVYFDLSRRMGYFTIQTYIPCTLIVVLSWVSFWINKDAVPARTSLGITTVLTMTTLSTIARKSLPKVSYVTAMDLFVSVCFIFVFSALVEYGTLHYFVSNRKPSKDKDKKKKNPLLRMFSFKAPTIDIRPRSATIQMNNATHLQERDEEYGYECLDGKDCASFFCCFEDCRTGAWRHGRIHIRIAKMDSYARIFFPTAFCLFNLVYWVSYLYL
T1 sequence (P34903 whole entry): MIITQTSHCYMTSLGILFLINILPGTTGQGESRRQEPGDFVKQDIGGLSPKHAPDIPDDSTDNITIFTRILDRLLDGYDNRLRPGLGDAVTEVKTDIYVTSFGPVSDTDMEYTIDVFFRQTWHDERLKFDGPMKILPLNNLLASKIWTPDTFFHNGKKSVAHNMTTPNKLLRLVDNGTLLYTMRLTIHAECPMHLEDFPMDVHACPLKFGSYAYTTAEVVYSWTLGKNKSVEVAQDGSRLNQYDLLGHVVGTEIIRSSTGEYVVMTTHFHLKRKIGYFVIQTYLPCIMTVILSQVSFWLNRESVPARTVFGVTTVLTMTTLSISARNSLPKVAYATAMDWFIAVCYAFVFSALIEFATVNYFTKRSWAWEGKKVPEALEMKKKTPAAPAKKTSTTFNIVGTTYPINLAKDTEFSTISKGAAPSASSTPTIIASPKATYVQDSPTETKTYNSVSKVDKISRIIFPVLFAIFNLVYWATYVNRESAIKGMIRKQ
Put plainly: Displacement of [3H]flunitrezepam from GABAA alpha-3-beta-2-gamma-2 receptor by liquid scintillation counting. Format: protein-complex assay. (Displacement assays read how much labelled ligand stays bound in the presence of the test substance.)

For data set [9], the species on record is Mus musculus. Put plainly: CNS toxicity in Albino mouse assessed as ataxia at 0.2 ml/10 g by hippocratic screen. In kind it is organism-based. Particulars: in vivo.
Data set [10] is filed under the species Mus musculus. Briefly: CNS toxicity in Albino mouse assessed as decrease in motor activity at 0.2 ml/10 g by hippocratic screen. Format: organism-based. Particulars: in vivo.
For data set [11], the species on record is Mus musculus. Briefly: Effect on behavioral activity in Albino mouse assessed as inhibition of diazepam-induced loss of analgesia at 0.2 ml/10 g by hippocratic screen. Format: functional, organism-based.
The species named for data set [12] is Mus musculus. Briefly: CNS toxicity in Albino mouse assessed as loss of righting reflex at 0.2 ml/10 g by hippocratic screen. In kind it is organism-based. Particulars: in vivo.
Data set [13] is filed under the species Mus musculus. Put plainly: CNS toxicity in Albino mouse assessed as loss of analgesic activity at 0.2 ml/10 g by hippocratic screen. Conditions: in vivo. Format: organism-based.
The species entered for data set [14] is Mus musculus. Briefly: CNS toxicity in Albino mouse assessed as paralysis at 0.2 ml/10 g by hippocratic screen. In kind it is organism-based. Conditions: in vivo.
Data set [15] deals with Mus musculus. Put plainly: CNS toxicity in Albino mouse assessed as anesthetic response at 0.2 ml/10 g by hippocratic screen. In kind it is organism-based. Conditions: in vivo.
The species named for data set [16] is Mus musculus. Put plainly: Effect on behavioral activity in Albino mouse assessed as inhibition of diazepam-induced decrease in motor activity at 0.2 ml/10 g for 10 to 15 mins by hippocratic screen. In kind it is functional, organism-based.
The species named for data set [17] is Mus musculus. Briefly: CNS toxicity in Albino mouse assessed as tremors at 0.2 ml/10 g by hippocratic screen. In kind it is organism-based. Conditions: in vivo.
The target of data set [18] is T2, GABA-A receptor; alpha-1/beta-2/gamma-2 (Homo sapiens, UniProt P14867+P18507+P47870).
T2 sequence (P14867 whole entry): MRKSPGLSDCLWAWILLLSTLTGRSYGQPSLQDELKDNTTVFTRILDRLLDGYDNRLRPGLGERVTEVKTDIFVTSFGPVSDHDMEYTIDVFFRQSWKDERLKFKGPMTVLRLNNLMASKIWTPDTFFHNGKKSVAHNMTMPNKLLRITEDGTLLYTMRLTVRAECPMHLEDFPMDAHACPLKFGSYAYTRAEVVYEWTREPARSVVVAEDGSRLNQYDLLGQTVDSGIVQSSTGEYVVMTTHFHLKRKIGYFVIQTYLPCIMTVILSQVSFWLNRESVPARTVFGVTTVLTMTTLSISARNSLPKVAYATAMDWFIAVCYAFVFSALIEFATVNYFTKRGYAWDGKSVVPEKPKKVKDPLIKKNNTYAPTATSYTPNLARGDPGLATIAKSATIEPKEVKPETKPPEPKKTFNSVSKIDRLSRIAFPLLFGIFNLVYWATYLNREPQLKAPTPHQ
T2 sequence (P47870 whole entry): T1 sequence (P47870 whole entry)
T2 sequence (P18507 whole entry): T1 sequence (P18507 whole entry)
Briefly: Displacement of [3H]flunitrezepam from GABA-A alpha-1-beta-2-gamma-2 receptor by liquid scintillation counting. In kind it is protein-complex assay.

For data set [19], the species on record is Mus musculus. Briefly: CNS toxicity in Albino mouse assessed as loss of screen grip at 0.2 ml/10 g by hippocratic screen. Particulars: in vivo. In kind it is organism-based.

Consider `COc1ccc2c3c(oc2c1)C(=O)Nc1cccc[n+]1C3.[Cl-]`, for which the Activity entry in the data set listed under Mus musculus [1], in the data set filed under Mus musculus [3], in the data set filed under Mus musculus [7], in the data set filed under Mus musculus [9], in the data set listed under Mus musculus [10] and in the data set listed under Mus musculus [12] was “Non-toxic” throughout. Besides, the Activity entry in the data set listed under Mus musculus [13], in the data set filed under Mus musculus [14], with Mus musculus [15], in the data set listed under Mus musculus [17] and in the data set filed under Mus musculus [19] was “Non-toxic” throughout. Further, the outcome in the data set listed under Mus musculus [2], in the data set filed under Mus musculus [5], in the data set filed under Mus musculus [6] and in the data set listed under Mus musculus [11] was inactive. Besides, the result in the data set filed under Mus musculus [4] and in the data set filed under Mus musculus [16] was Active. The values for the Ki in data set [8] and in [18] were 1540 nM and 746 nM, respectively.
